Reference: patent US9321772B2, “Substituted pyrazolo[3,4-D]pyrimidines and uses thereof” (The Regents of the University of California, priority 2011, dated 2016)

Target: T1, RET fusion protein CCDC6-RET (Homo sapiens, UniProt P07949)
T1 construct: endogenous in cells; host or cells: TPC1 thyroid cancer cells; the other entry of the earlier key: CCDC6 (Q16204, Coiled-coil domain-containing protein 6)
T1 sequence (P07949 with tags, fused parts or gaps): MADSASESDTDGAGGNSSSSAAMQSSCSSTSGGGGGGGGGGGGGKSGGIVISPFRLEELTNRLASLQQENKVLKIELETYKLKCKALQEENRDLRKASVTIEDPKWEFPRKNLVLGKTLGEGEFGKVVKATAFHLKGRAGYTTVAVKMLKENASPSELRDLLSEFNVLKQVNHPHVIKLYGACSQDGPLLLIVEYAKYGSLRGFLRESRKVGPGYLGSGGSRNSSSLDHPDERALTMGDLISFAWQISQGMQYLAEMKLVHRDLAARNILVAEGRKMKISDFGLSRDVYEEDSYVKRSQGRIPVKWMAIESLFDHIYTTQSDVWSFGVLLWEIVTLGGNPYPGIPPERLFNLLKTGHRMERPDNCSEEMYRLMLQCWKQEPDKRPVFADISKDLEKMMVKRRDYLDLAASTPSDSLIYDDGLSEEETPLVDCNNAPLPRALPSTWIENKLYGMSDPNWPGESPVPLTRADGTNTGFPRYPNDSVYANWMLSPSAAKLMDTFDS
Assay: RET fusion dephosphorylation in TPC1 whole cell lysates
Type: cell-based
Procedure: FIG. 24. Whole cell lysates of TPC1 cells were extracted after treatment with AD80 at indicated concentrations and given time points. TPC1 cells were grown in 6 cm dishes at 70-80% confluence in growth media supplemented with 10% FBS. AD80 treatment leads to dephosphorylation of the RET fusion protein at low nanomolar concentrations <10 nM. The inhibition of RET results in dephosphorylation of downstream signaling (PI3K, MAPK).

CC(C)n1nc(-c2ccc(NC(=O)Nc3cc(C(F)(F)F)ccc3F)cc2)c2c(N)ncnc21 [AD80]
concentration leading to dephosphorylation of the RET fusion protein: < 10 nM
